# Where “and” joins values, the source holds several entries; their conditions need not be identical. Equal values may be shown once. Read-outs that look alike come from different tables or passages of the source.
# Experiments:
# [1] = system: mouse lung; experiment: Luciferase expression in mouse lung 3 days after intranasal instillation of VR1223 complexed with GAP-DLRIE/DOPE; type: in vivo; conditions: day 3; for luciferase expression in lung: 132 μg VR1223 + GAP-DLRIE/DOPE
# [2] = system: influenza nucleoprotein; conditions: 9 weeks post-vaccination, versus saline
# [3] = system: β-galactosidase
# [4] = system: mouse quadriceps muscle; experiment: Luciferase expression in mouse quadriceps muscle 7 days after i.m. injection of plasmid VR1223 in salt solutions; type: in vivo; set-up: lux: unit: ng/muscle; conditions: for lux: 7-day luciferase expression, VR1223; for luciferase expression, fold over saline: VR1223, day 7; for ng lux/muscle: reproducibility
# [5] = system: mouse quadriceps muscle; experiment: Serum human IFN-ω after i.m. injection of plasmid VR4151; type: in vivo
# Procedure: (§1) Muscle extracts were assayed for β-galactosidase and the serum was assayed for circulating levels of IFN-ω.
# [6] = system: mouse quadriceps muscle; experiment: Luciferase expression in mouse quadriceps muscle after i.m. injection of plasmid VR1255 with auxiliary agents; conditions: 50 μg VR1255 in 50 μl 150 mM sodium phosphate with added agents, day 7
# [7] = Osmolarity of the salt solutions; type: physicochemical; conditions: for Osm: 150 mM unless otherwise indicated
# [8] = system: mouse quadriceps muscle; experiment: β-galactosidase-stained muscle fibers after i.m. injection of plasmid VR1412; type: in vivo; conditions: 50 μg VR1412, day 7, n=10
# Procedure: For whole muscle staining, quadriceps were fixed for 3 hours at room temperature in 2% paraformaldehyde in PBS, washed 3 times for 20 min each in PBS and incubated for 18 hours at 37° C. in a solution containing 2 mM MgCl2, 5 mM potassium ferricferrocyanide and 1 mg/ml 5-bromo-4-chloro-3-indoyl-β-D-galactosidase (available from Life Technologies, Inc. (LTI), Gaithersberg, Md.) in PBS. After incubation, the muscles were washed 3 times for 10 min each in 3% dimethyl sulfoxide in PBS and stored in PBS at 4° C. until analysis. […] Sections were collected on 1% gelatin coated glass slides, brought to room temperature and stained for 2 hours at 37° C. in the same reagent as for whole mounts above except that the beta-galactosidase reagent concentration was 200 μg/ml. The sections were then counterstained with Harris hematoxylin in acetic acid, rinsed in tap water, dehydrated and mounted in Permount (Fisher, Fair Lawn, N.J.).
# Individual muscle cells were examined for β-galactosidase expression as follows.
# Whole quadriceps muscle groups were harvested on day 7. Muscles were snap frozen in OTC medium (n=10 muscles for each group). 10 micron cross-sections were stained with x-gal (substrate for β-gal). Fibers expressing β-gal (stained blue) were counted.
# [9] = system: B16F10 tumor cells; experiment: Anti-tumor effect of i.m. mIFN-α plasmid VR4111 in mice bearing subcutaneous B16F10 tumors; type: in vivo, mouse
# [10] = system: rectus femoris muscle; conditions: no agent
# Source text: Two milliliters of DNA were delivered as 1-ml injections into each rectus femoris muscle. Following injection, cats were monitored at 7 day intervals for serum hematocrit levels, which correlate with the expression of erythropoeitin.
# [11] = system: mouse quadriceps muscle; experiment: β-galactosidase expression in mouse quadriceps muscle after i.m. injection of plasmid VR1418
# Procedure: The luciferase content of the samples was calculated from Relative Light Units using a standard curve of purified firefly luciferase (Analytical Luminescence Laboratory, San Diego, Calif.; Cat. No. 2400), which was diluted in pooled extract from uninjected muscles to control for quenching. Luciferase values were expressed as ng luciferase per muscle. […] A standard curve, prepared in pooled extract from uninjected muscles, was included on each plate using the β-galactosidase enzyme standard included in the kit.
# as §1
# Quadriceps muscles were injected with 50 μl of each solution containing 10 μg of plasmid VR1418, and the muscles were tested for 7-day expression levels.
# [12] = pH of the salt solutions; type: physicochemical; conditions: 150 mM unless otherwise indicated
# [13] = system: influenza nucleoprotein; conditions: 5 μg VR4700 days 0 and 21, 6 weeks
# [14] = system: mouse quadriceps muscle; experiment: Hematocrit after i.m. injection of mouse erythropoietin plasmid (VR2901, VR2996); type: in vivo; conditions: 10 μg or 2.5 μg VR2901, four weeks
# Procedure: Hematocrits were measured by centrifugation of blood obtained from the retro-orbital cavity of mice. Blood samples were collected in 75 μl heparinized capillary tubes and analyzed using HemaSTAT II microhematocrit centrifuge (Separation Technology, Inc., Altamonte Springs, Fla.).
# The mice were monitored over time for serum hematocrit levels, which correlate with the expression of erythropoeitin.
# The mice were monitored over four weeks for serum hematocrit levels, which correlate with the expression of erythropoeitin.
# The mice were monitored at days 0, 7, 14, 21, and 28 for serum hematocrit levels, which correlate with the expression of erythropoeitin.
# The mice were monitored at days 7, 14, and 28 for serum hematocrit levels, which correlate with the expression of erythropoeitin. Control serum levels were measured before any injections.
# [15] = listed as 150 mM sodium phosphate
# [16] = listed as 50 mM sodium phosphate
# [17] = listed as 100 mM sodium phosphate
# [18] = listed as 50 mM Sodium Phosphate
# [19] = listed as 100 mM Sodium Phosphate
# [20] = listed as 150 mM Sodium Phosphate
smiles,measurement,setting,value
O=P(O)(O)O [Sodium Phosphate],luciferase expression in lung,[1]; listed as 2.5 mM sodium phosphate,5.2 ng lux/lung
same,luciferase expression in lung,[1]; [15],0.22 ng lux/lung
same,luciferase expression in lung compared with water,[1],"enhanced compared with water, but not as much as with 2.5 mM sodium phosphate"
same,"luciferase expression in lung, fold compared with water",[1],5.5 fold
same,anti-NP specific CTL activity,[2],statistically similar
same,mice with anti-β-galactosidase antibody,"[3]; 10 μg VR1412, four weeks",none of the mice
same,mice with anti-β-galactosidase antibody,"[3]; 10 μg VR1412, two weeks",none of the mice
same,ng luciferase per muscle,"[4]; 50 μg VR1223 in 50 μl, day 7",386 ng luciferase per muscle
same,ng Lux/Muscle,"[4]; 50 μg VR1223 in 50 μl, salts at 150 mM, day 7",481 ng/Muscle
same,luciferase expression compared with saline (words),"[4]; 80 mM, 100 mM, 150 mM and 200 mM sodium phosphate, p<0.05",significantly higher than saline
same,"luciferase in muscle, fold over saline","[4]; Example 4, day 7",4.8 fold
same,luciferase in muscle,"[4]; Example 4, run in parallel, day 7",769 ng/muscle
same,enhancement over saline,[4]; Exp. #1 (highest),7.3 fold
same,enhancement over saline,[4]; Exp. #9 (lowest),2.5 fold
same,lux,[4]; Table III-A,481
same,lux,"[4]; Table III-A, listed as 50 mM Sodium Phosphate",254
same,lux,"[4]; Table III-A, listed as 100 mM Sodium Phosphate",270
same,lux,"[4]; Table III-A, listed as 150 mM Sodium Phosphate",481
same,lux,"[4]; Table III-B, listed as 50 mM Sodium Phosphate",254
same,lux,"[4]; Table III-B, listed as 100 mM Sodium Phosphate",270
same,lux,"[4]; Table III-B, listed as 150 mM Sodium Phosphate",481
same,"luciferase expression, fold over saline",[4]; [16],2.1 fold
same,"luciferase expression, fold over saline",[4]; [17],2.3 fold
same,"luciferase expression, fold over saline",[4]; [15],4.3 fold and 4 fold
same,average enhancement over saline,[4]; all 9 experiments,4.1 fold
same,ng luciferase/muscle,[4]; average of all 9 experiments,490 ng luciferase/muscle
same,ng lux/muscle,[4]; Exp. #1,362 ng lux/muscle
same,ng lux/muscle,[4]; Exp. #9,384 ng lux/muscle
same,Fold Saline,"[4]; salts at 150 mM, relative to saline, day 7",4.0 Fold
same,luciferase expression compared with saline (words),[4]; sodium phosphate below 40 mM or above 300 mM,equal to or lower than those seen with saline
same,serum IFN-ω levels,"[5]; 50 μg VR4151, day 7",0.35 ng ml serum
same,"serum IFN-ω levels, fold over saline",[5]; day 7,2.5 fold
same,Average μg luciferase muscle,[6],0.37 µg
same,Osm,[7]; [18],83 mmol/kg
same,Osm,[7]; [19],232 mmol/kg
same,Osm,[7]; [20],308 mmol/kg
same,osmolarity,[7]; [16],83 mmol/kg
same,osmolarity,[7]; [17],270 mmol/kg
same,osmolarity,[7]; [15],310 mmol/kg
same,β-galactosidase-positive myofiber cells,[8],186+/−43 myofiber cells/muscle section
same,tumor volume,"[9]; 27 days, VR4111",955 mm^3
same,tumor growth versus blank DNA controls,"[9]; VR4111 100 μg i.m., up to 22 days",lower rate of tumor growth
same,survival versus blank DNA in saline,"[9]; p<0.007, Kaplan-Meier",statistically significant survival difference
same,mice surviving,"[9]; to day 41, VR4111",4 out of 10
same,cats with elevated hematocrit,"[10]; group 3, 1 mg/ml DNA",one cat
same,cats with elevated hematocrit,"[10]; groups 1 and 2, 5 and 3 mg/ml DNA",No cats
same,β-galactosidase in muscle,"[11]; 10 μg VR1418, day 7",9.8 ng/muscle
same,optimal molar concentration for β-galactosidase expression,"[11]; 10 μg VR1418, day 7, data not shown",150 mM
same,"β-galactosidase in muscle, fold over saline",[11]; day 7,3.3 fold
same,pH,[12],7.2
same,pH,[12]; [18],7.2
same,pH,[12]; [19],7.2
same,pH,[12]; [20],7.2
same,serum anti-NP antibody titers,[13],enhanced serum anti-NP antibody titers compared with saline solution
same,hematocrit versus plasmid DNA in saline,[14],higher hematocrit levels
